Assay results reported in patent US20100285039A1, “B7-H1 (CD274) Antagonists Induce Apoptosis of Tumor Cells” (THE JOHNS HOPKINS UNIVERSITY, priority 2008, published 2010).

What was measured:
B7-H1/P815 cells = test: Staurosporine induced apoptosis (annexin V/PI); type: cell-based, mouse; settings: Staurosporine (STP 1 μM), control Ig-treated cells
Procedure: PD-1Ig fusion protein or control IgG were coated on 96 well-plates for 18 hr at 4° C. Full length B7-H1/P815 cells were cultured with STP (1 μM) in the well coated PD-1Ig or control IgG. Cells were harvested after 24 hr and stained with annexin V (BD PharMingen) at 5 μl/test, propidium iodide (PI) (Sigma-Aldrich) at 5 μg/ml for 1 hour and monoclonal antibodies against H-2D^d. Apoptosis was calculated as the percentage of annexin V+PI-cells gated in the H-2D^d+ fractions.
B7-H1 was assayed to determine whether it confers resistance to drugs which induce apoptosis of tumor cells. […] Staurosporine is often used as a general method for inducing apoptosis of tumor cells.

[1] = molecular target: wild type murine B7-H1 expressed on P815 cells (B7-H1/P815) (mouse) (UniProt Q9EP73); test: cell-based or functional assay
Chain of wild type murine B7-H1 expressed on P815 cells (B7-H1/P815) (mouse) (Q9EP73 19-290): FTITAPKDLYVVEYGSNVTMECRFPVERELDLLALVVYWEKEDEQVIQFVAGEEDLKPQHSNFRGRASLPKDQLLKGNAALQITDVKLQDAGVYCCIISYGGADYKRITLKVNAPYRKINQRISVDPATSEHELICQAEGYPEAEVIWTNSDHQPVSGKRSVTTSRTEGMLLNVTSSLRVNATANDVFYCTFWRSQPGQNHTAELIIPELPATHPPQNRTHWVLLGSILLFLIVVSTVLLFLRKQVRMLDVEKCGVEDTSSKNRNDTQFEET

cytolytic activity of CTLs against B7-H1/P815 targets [1] [%] | Molecule | apoptosis of B7-H1/P815 cells (B7-H1/P815 cells) [%]
 | CN[C@@H]1C[C@H]2O[C@@](C)([C@@H]1OC)n1c3ccccc3c3c4c(c5c6ccccc6n2c5c31)C(=O)NC4 [Staurosporine] | 74.9
50 | wild type murine PD-1 expressed on transduced PD-1KO 2C CTLs (PD-1/PD-1^02C) (from UniProt Q02242 25-288) (receptor) | 
